{
  "source": "patent US9447134B2",
  "about": "(priority 2012, dated 2016)",
  "key": {"[1]": {"molecular_target": "T1, CpIMPDH (Cryptosporidium parvum, UniProt Q8T6T2)", "T1 sequence (Q8T6T2 1-400)": "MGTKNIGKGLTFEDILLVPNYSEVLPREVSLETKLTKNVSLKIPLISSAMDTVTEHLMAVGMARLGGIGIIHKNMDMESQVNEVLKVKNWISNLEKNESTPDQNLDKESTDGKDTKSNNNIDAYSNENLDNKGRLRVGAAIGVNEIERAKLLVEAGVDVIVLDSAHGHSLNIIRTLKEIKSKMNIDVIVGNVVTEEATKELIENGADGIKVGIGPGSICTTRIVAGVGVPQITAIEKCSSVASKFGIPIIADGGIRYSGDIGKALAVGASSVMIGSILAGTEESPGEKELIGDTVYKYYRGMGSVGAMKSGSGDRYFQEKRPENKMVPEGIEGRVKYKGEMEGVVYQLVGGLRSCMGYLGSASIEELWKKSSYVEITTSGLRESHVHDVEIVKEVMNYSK"}, "[2]": {"assay": "Mouse liver microsomal stability"}, "[3]": {"molecular_target": "T1, CpIMPDH", "assay": "biochemical"}, "[4]": {"molecular_target": "T1, CpIMPDH", "remark": "listed apart in the source"}, "[5]": {"system": "C. parvum"}, "[6]": {"settings": "mouse, in vivo; cited from earlier work"}, "[7]": {"system": "Caco-2 cells", "settings": "cited from earlier work"}, "[8]": {"system": "Cryptosporidium", "settings": "mouse models; cited from earlier work"}},
  "data": [
    {"compound": "Cn1nc(CC(=O)Nc2ccc(Cl)c(C(F)(F)F)c2)c2ccccc2c1=O", "values": [
      {"measurement": "inhibition mechanism with respect to NAD+", "setting": "[1]", "value": "pure noncompetitive inhibitor"},
      {"measurement": "Ki", "setting": "[1]; read-out: Kis, with respect to NAD+", "value": "0.0034 ± 0.0002", "unit": "µM"},
      {"measurement": "half-life in mouse liver microsomes", "setting": "[2]; presence or absence of NADPH not given", "value": 79, "unit": "min"}
    ]},
    {"compound": "CC1(c2cccc(CNC(=O)Nc3ccc(Cl)cc3)c2)OCCO1", "note": "[Compound 22, 1-(4-Chlorophenyl)-3-(3-(2-methyl-1,3-dioxolan-2-yl)benzyl)urea]", "values": [
      {"measurement": "half-life in mouse liver microsomes", "setting": "[2]; 37° C., absence of NADPH", "value": "quite stable"},
      {"measurement": "half-life in mouse liver microsomes", "setting": "[2]; 37° C., presence of NADPH", "value": 25, "unit": "min"}
    ]},
    {"compound": "Cc1cc2cc(NC(=O)Cc3nn(C)c(=O)c4ccccc34)ccc2o1", "note": "[Compound D62, N-(2-methylbenzofuran-5-yl)-2-(3-methyl-4-oxo-3,4-dihydrophthalazin-1-yl)-acetamide]", "values": [
      {"measurement": "IC50", "setting": "[3]", "value": 0.07, "unit": "µM"}
    ]},
    {"compound": "Cn1nc(CC(=O)Nc2ccc3ocnc3c2)c2ccccc2c1=O", "note": "[Compound D64, N-(benzo[d]oxazol-5-yl)-2-(3-methyl-4-oxo-3,4-dihydrophthalazin-1-yl)acetamide]", "values": [
      {"measurement": "CpIMPDH inhibitory activity (SAR, in words)", "setting": "[4]", "value": "inactive"}
    ]},
    {"compound": "Cn1nc(CC(=O)Nc2ccc3[nH]c4ccccc4c3c2)c2ccccc2c1=O", "note": "[Compound D70, N-(9H-carbazol-3-yl)-2-(3-methyl-4-oxo-3,4-dihydrophthalazin-1-yl)acetam-de]", "values": [
      {"measurement": "CpIMPDH inhibitory activity (SAR, in words)", "setting": "[4]", "value": "not active"}
    ]},
    {"compound": "CCn1c2ccccc2c2cc(NC(=O)Cc3nn(C)c(=O)c4ccccc34)ccc21", "note": "[Compound D71, N-(9-ethyl-9H-carbazol-3-yl)-2-(3-methyl-oxo-3,4-dihydrophthalazin-1-yl) acetamide]", "values": [
      {"measurement": "CpIMPDH inhibitory activity (SAR, in words)", "setting": "[4]", "value": "not active"}
    ]},
    {"compound": "Cn1nc(CC(=O)Nc2ccc3c(c2)oc2ccccc23)c2ccccc2c1=O", "note": "[Compound D72, N-(dibenzo[b,d]furan-3-yl)-2-(3-methyl-4-oxo-3,4-dihydrophthalazin-1-yl)acetamide]", "values": [
      {"measurement": "CpIMPDH inhibitory activity (SAR, in words)", "setting": "[4]", "value": "not active"}
    ]},
    {"compound": "NC[C@@H]1O[C@H](O[C@H]2[C@@H](O)[C@H](O[C@@H]3[C@@H](O)[C@H](N)C[C@H](N)[C@H]3O[C@H]3O[C@H](CO)[C@@H](O)[C@H](O)[C@H]3N)O[C@@H]2CO)[C@H](N)[C@@H](O)[C@@H]1O", "note": "[Paromomycin, paromomycin]", "values": [
      {"measurement": "range of reduction of fecal oocysts over experiments", "setting": "[5]; paromomycin 2000 mg/kg daily oral gavage", "value": "73-99%"},
      {"measurement": "average reduction of fecal oocysts", "setting": "[5]; paromomycin 2000 mg/kg daily oral gavage, average of experiments", "value": 89, "unit": "%"},
      {"measurement": "reduction of fecal oocysts, multiple daily dose regime", "setting": "[5]; three daily doses (P131 3×83 mg/kg), 10,000 oocysts, counted day 4 post-infection", "value": "88-95%"},
      {"measurement": "systemic distribution / oral bioavailability (literature, in words)", "setting": "[6]", "value": "poor oral bioavailability"},
      {"measurement": "accumulation in Caco-2 cells (in words)", "setting": "[7]", "value": "high accumulation"}
    ]},
    {"compound": "O=c1[nH]c(=O)n([C@H]2C[C@H](O)[C@@H](CO)O2)cc1C(F)(F)F", "note": "[Trifluoromethylthymidine]", "values": [
      {"measurement": "in vivo anticryptosporidial efficacy (literature, in words)", "setting": "[8]", "value": "significant anticryptosporidial activity"}
    ]},
    {"compound": "CC(=O)Oc1ccccc1C(=O)Nc1ncc([N+](=O)[O-])s1", "note": "[nitazoxanide]", "values": [
      {"measurement": "systemic distribution / oral bioavailability (literature, in words)", "setting": "[6]", "value": "systemically distributed"},
      {"measurement": "in vivo anticryptosporidial efficacy (literature, in words)", "setting": "[8]", "value": "little to no efficacy"}
    ]},
    {"compound": "N-(6,7,8,9-tetrahydrodibenzo[b,d]furan-5-yl)-2-(3-methyl-4-oxo-3,4-dihydro-phthalazin-1-yl)acetamide [Compound D67]", "values": [
      {"measurement": "CpIMPDH inhibitory activity (SAR, in words)", "setting": "[4]", "value": "enhanced potency"}
    ]}
  ]
}
